Calls of active or inactive are those of the source. The calls are words filed in the database; no cut-off is given here.

The subject of experiment [1] is Mythimna separata. In words: In vivo insecticidal activity against pre-third-instar larval stage of Mythimna separata (Oriental armyworm) in corn leaves assessed as induction of molting to abnormal pupae at 1 mg/ml treated for 3 secs before larval infestation on corn leaves by leaf-dipping method. Type of experiment: functional, organism-based.
Experiment [2] has as its system Mythimna separata. In words: In vivo insecticidal activity against pre-third-instar larval stage of Mythimna separata (Oriental armyworm) in corn leaves assessed as inhibition of adult emergence at 1 mg/ml treated for 3 secs before larval infestation on corn leaves by leaf-dipping method. Type of experiment: functional, organism-based.
The subject of experiment [3] is Mythimna separata. The experiment can be described thus: In vivo insecticidal activity against pre-third-instar larval stage of Mythimna separata (Oriental armyworm) in corn leaves assessed as inhibition of larval pupation at 1 mg/ml treated for 3 secs before larval infestation on corn leaves by leaf-dipping method. Type of experiment: functional, organism-based.

The subject of experiment [4] is Mythimna separata. The experiment can be described thus: In vivo insecticidal activity against pre-third-instar larval stage of Mythimna separata (Oriental armyworm) in corn leaves assessed as induction of loss of body liquid at 1 mg/ml treated for 3 secs before larval infestation on corn leaves measured after 48 hr by leaf-dipping method. It is filed as functional, organism-based.

Experiment [5] relates to Mythimna separata. In words: In vivo insecticidal activity against pre-third-instar larval stage of Mythimna separata (Oriental armyworm) in corn leaves assessed as induction of larval immobility at 1 mg/ml treated for 3 secs before larval infestation on corn leaves measured after 48 hr by leaf-dipping method. Type of experiment: functional, organism-based.
The subject of experiment [6] is Mythimna separata. In words: In vivo insecticidal activity against pre-third-instar larval stage of Mythimna separata (Oriental armyworm) in corn leaves assessed as reduction in larval movement at 1 mg/ml treated for 3 secs before larval infestation on corn leaves measured after 24 hr by leaf-dipping method. It is filed as functional, organism-based.
In experiment [7] the test system is Mythimna separata. The experiment can be described thus: In vivo insecticidal activity against pre-third-instar larval stage of Mythimna separata (Oriental armyworm) in corn leaves assessed as corrected mortality rate at 1 mg/ml treated for 3 secs before larval infestation on corn leaves measured after 33 days by leaf-dipping method. Type of experiment: functional. Particulars: 792 h.

Experiment [8] concerns Mythimna separata. In words: In vivo insecticidal activity against pre-third-instar larval stage of Mythimna separata (Oriental armyworm) in corn leaves assessed as corrected mortality rate at 1 mg/ml treated for 3 secs before larval infestation on corn leaves measured after 20 days by leaf-dipping method. Type of experiment: functional. Particulars: 480 h.
Experiment [9] deals with Mythimna separata. In words: In vivo insecticidal activity against pre-third-instar larval stage of Mythimna separata (Oriental armyworm) in corn leaves assessed as corrected mortality rate at 1 mg/ml treated for 3 secs before larval infestation on corn leaves measured after 10 days by leaf-dipping method. It is filed as functional. Conditions: 240 h.

For orientation: mortality means the percentage killed. Take `COC(=O)c1ccccc1C(=O)O[C@H]1c2cc3c(cc2[C@@H](c2cc(OC)c(OC)c(OC)c2)[C@H]2C(=O)OC[C@@H]21)OCO3`: the result with Mythimna separata [1], in the experiment on Mythimna separata [2], in the experiment with Mythimna separata [3], in the experiment with Mythimna separata [4], in the experiment on Mythimna separata [5] and in the experiment on Mythimna separata [6] was Active. Besides, the figures for the mortality at 1000 µg/mL with Mythimna separata [7], with Mythimna separata [8] and with Mythimna separata [9] were 35.7%, 24.1% and 16.6%, respectively.
Regarding `COC(=O)c1cccc([N+](=O)[O-])c1C(=O)O[C@H]1c2cc3c(cc2[C@@H](c2cc(OC)c(OC)c(OC)c2)[C@H]2C(=O)OC[C@@H]21)OCO3`, the outcome in the experiment with Mythimna separata [1], with Mythimna separata [2], with Mythimna separata [3], in the experiment with Mythimna separata [4], with Mythimna separata [5] and in the experiment with Mythimna separata [6] was Active. Besides, the results for the mortality at 1000 µg/mL in the experiment on Mythimna separata [7], with Mythimna separata [8] and with Mythimna separata [9] were 21.4%, 6.9% and 6.6%, respectively.
Turning to `COC(=O)c1ccccc1C(=O)O[C@H]1c2cc3c(cc2[C@@H](c2cc(OC)c(OC)c(OC)c2)[C@@H]2C(=O)OC[C@@H]21)OCO3`, the result in the experiment on Mythimna separata [1], with Mythimna separata [2], in the experiment with Mythimna separata [3], in the experiment on Mythimna separata [4], in the experiment on Mythimna separata [5] and in the experiment with Mythimna separata [6] was Active. The mortality at 1000 µg/mL in the experiment with Mythimna separata [7] amounted to 17.8%; in the experiment on Mythimna separata [8], 10.3%; in the experiment on Mythimna separata [9], 10%.
In the case of `COC(=O)c1cccc([N+](=O)[O-])c1C(=O)O[C@@H]1c2cc3c(cc2[C@@H](c2cc(OC)c(OC)c(OC)c2)[C@H]2C(=O)OC[C@@H]21)OCO3`, the outcome with Mythimna separata [1], with Mythimna separata [2], in the experiment on Mythimna separata [3], in the experiment on Mythimna separata [4], in the experiment with Mythimna separata [5] and in the experiment with Mythimna separata [6] was Active. The mortality at 1000 µg/mL in the experiment on Mythimna separata [7] came out at 42.8%; in the experiment with Mythimna separata [8], 17.2%; in the experiment on Mythimna separata [9], 10%.
Take `COC(=O)c1ccccc1C(=O)Oc1c(OC)cc([C@@H]2c3cc4c(cc3[C@@H](OC(=O)c3c(C(=O)OC)cccc3[N+](=O)[O-])[C@H]3COC(=O)[C@H]23)OCO4)cc1OC`: the outcome in the experiment on Mythimna separata [1], in the experiment with Mythimna separata [2], in the experiment with Mythimna separata [3], in the experiment on Mythimna separata [4], with Mythimna separata [5] and in the experiment with Mythimna separata [6] was Active. Moreover, the mortality at 1000 µg/mL worked out at 28.5% in the experiment with Mythimna separata [7], 20.6% in the experiment with Mythimna separata [8] and 16.6% in the experiment on Mythimna separata [9].
On to `COC(=O)c1ccccc1C(=O)O[C@@H]1c2cc3c(cc2[C@@H](c2cc(OC)c(OC)c(OC)c2)[C@H]2C(=O)OC[C@@H]21)OCO3`, for which the result in the experiment with Mythimna separata [1], in the experiment on Mythimna separata [2], in the experiment with Mythimna separata [3], in the experiment on Mythimna separata [4], with Mythimna separata [5] and in the experiment on Mythimna separata [6] was Active. The mortality at 1000 µg/mL in the experiment on Mythimna separata [7] came out at 38.5%; in the experiment on Mythimna separata [8] it was 20.6%; in the experiment on Mythimna separata [9], 10%.
In the case of `CC(=O)O[C@@H]1C[C@H](O)[C@@]23CO[C@@H](O)[C@]1(C)[C@@H]2C[C@@H](O)[C@]1(C)[C@@H]3C(=O)[C@H](OC(C)=O)[C@@]2(C)[C@H](c3ccoc3)C[C@H]3O[C@]321` [TOOSENDANIN], the mortality at 1000 µg/mL in the experiment on Mythimna separata [7] amounted to 50%; in the experiment with Mythimna separata [8] it was 31%; with Mythimna separata [9] it was 30%.
Take `COC(=O)c1ccccc1C(=O)O[C@H]1c2cc3c(cc2[C@@H](c2cc(OC)c(OC)c(OC)c2)[C@@]2(Cl)C(=O)OC[C@H]12)OCO3`: the outcome with Mythimna separata [1], in the experiment with Mythimna separata [2], in the experiment on Mythimna separata [3], in the experiment on Mythimna separata [4], with Mythimna separata [5] and with Mythimna separata [6] was Active. For the same compound, the figures for the mortality at 1000 µg/mL in the experiment with Mythimna separata [7], in the experiment on Mythimna separata [8] and in the experiment on Mythimna separata [9] were 53.5%, 31% and 16.6%, respectively.
Take `COC(=O)c1cccc([N+](=O)[O-])c1C(=O)O[C@H]1c2cc3c(cc2[C@@H](c2cc(OC)c(OC)c(OC)c2)[C@@]2(Cl)C(=O)OC[C@H]12)OCO3`: the outcome in the experiment with Mythimna separata [1], in the experiment on Mythimna separata [2], with Mythimna separata [3], in the experiment on Mythimna separata [4], in the experiment on Mythimna separata [5] and in the experiment with Mythimna separata [6] was Active. Moreover, the results for the mortality at 1000 µg/mL in the experiment with Mythimna separata [7], with Mythimna separata [8] and in the experiment on Mythimna separata [9] were 46.4%, 41.3% and 30%, respectively.
Turning to `COC(=O)c1ccccc1C(=O)Oc1c(OC)cc([C@@H]2c3cc4c(cc3[C@@H](OC(=O)c3ccccc3C(=O)OC)[C@H]3COC(=O)[C@H]23)OCO4)cc1OC`, the result in the experiment with Mythimna separata [1], with Mythimna separata [2], in the experiment on Mythimna separata [3], in the experiment on Mythimna separata [4], in the experiment on Mythimna separata [5] and in the experiment with Mythimna separata [6] was Active. Also, the mortality at 1000 µg/mL turned out to be 21.4% with Mythimna separata [7], 17.2% in the experiment with Mythimna separata [8] and 16.6% in the experiment on Mythimna separata [9].
Consider `COC(=O)c1cccc([N+](=O)[O-])c1C(=O)N[C@@H]1c2cc3c(cc2[C@@H](c2cc(OC)c(OC)c(OC)c2)[C@H]2C(=O)OC[C@@H]21)OCO3`, for which the result in the experiment with Mythimna separata [1], in the experiment with Mythimna separata [2], with Mythimna separata [3], in the experiment on Mythimna separata [4], in the experiment with Mythimna separata [5] and in the experiment on Mythimna separata [6] was Active. The mortality at 1000 µg/mL with Mythimna separata [7] was found to be 35.7%; in the experiment on Mythimna separata [8], 20.6%; in the experiment on Mythimna separata [9] it was 10%.
In the case of `COC(=O)c1ccccc1C(=O)N[C@@H]1c2cc3c(cc2[C@@H](c2cc(OC)c(OC)c(OC)c2)[C@H]2C(=O)OC[C@@H]21)OCO3`, the result with Mythimna separata [1], in the experiment with Mythimna separata [2], in the experiment on Mythimna separata [3], in the experiment on Mythimna separata [4], in the experiment on Mythimna separata [5] and with Mythimna separata [6] was Active. Further, the mortality at 1000 µg/mL in the experiment with Mythimna separata [7] amounted to 42.8%; in the experiment on Mythimna separata [8], 10.3%; in the experiment with Mythimna separata [9], 6.6%.
For `COc1cc([C@@H]2c3cc4c(cc3[C@H](O)[C@H]3COC(=O)[C@H]23)OCO4)cc(OC)c1OC` [PODOFILOX], the mortality at 1000 µg/mL turned out to be 35.7% in the experiment with Mythimna separata [7], 20.6% in the experiment with Mythimna separata [8] and 16.6% in the experiment with Mythimna separata [9].
On to `COC(=O)c1cccc([N+](=O)[O-])c1C(=O)O[C@H]1c2cc3c(cc2[C@@H](c2cc(OC)c(OC)c(OC)c2)[C@@H]2C(=O)OC[C@@H]21)OCO3`, for which the result with Mythimna separata [1], in the experiment with Mythimna separata [2], with Mythimna separata [3], in the experiment on Mythimna separata [4], in the experiment on Mythimna separata [5] and in the experiment on Mythimna separata [6] was Active. The mortality at 1000 µg/mL with Mythimna separata [7] came to 14.2%; with Mythimna separata [8], 13.7%; in the experiment on Mythimna separata [9], 13.3%.
